Assay results as given in patent publication US11761966B2, “Nourin gene-based RNA molecular network: novel early diagnostic and prognostic biomarkers for coronary artery disease, unstable angina, STEMI/NSTEMI and heart failure” (Nour Heart, Inc., priority 2018, dated 2023).
Entries after “also recorded” stand apart in the source; their conditions may differ.

Experiments:
[1] = tested on: non-heartbeating dog model of heart transplantation; assay: Non-heartbeating dog model of heart transplantation (warm ischemic arrest, ex vivo perfusion); type: in vivo
Description: Dog hearts underwent 1 hour of global warm ischemic arrest then hearts were explanted and perfused ex vivo for an additional 4 hours with a cold lactated ringers solution containing Cyclocreatine, while control hearts received cold lactated ringers solution alone. […] Similarly, the myocardium of the CCr dog maintained a tissue pH of 7.04±0.1 during the warm ischemia period of 1 hour and throughout the ex vivo perfusion interval, which was close to its baseline level of 7.11. On the other hand, tissue pH in control hearts fell to a nadir of 6.00±0.25 during the induction of warm ischemia and never returned back to baseline levels during the ex vivo preservation period.

[2] = tested on: intact canine model of cold cardioplegic arrest; assay: Intact canine model of cold cardioplegic arrest and aortic cross-clamping (bypass); type: in vivo, dog
Description: Dogs were injected intravenously with saline or CCr (500 mg/kg) for 1 hour before initiating the experiment.
Atrial fibrillation (AF) induces cardiac structural remodeling and there is a need to develop more mechanism-directed AF therapies that use the mitochondria as a novel potential therapeutic target in AF.

[3] = tested on: intact AMI dog model of LAD occlusion; assay: Intact AMI dog model of LAD occlusion for 1 hour followed by reperfusion for 2 hours; type: in vivo; details: for myocardial cell injury (histology): vs control (saline) group
Description: During ischemia, myocardial ATP levels decrease by 65% at 15 minutes and by 90% at 40 minutes, thus contractile performance in vivo decreases precipitously and ceases when only 20% of ATP and 75% of creatine phosphate are depleted. […] ATP synthesis continued during ischemia and its depletion was delayed resulting in over 85% preservation of pre-ischemic ATP level with a loss of only 15%, and 97% preservation of the CrP (loss of 3%) during ischemia. This significant preservation is crucial since ATP depletion of more than 20% ceases contractility. Control saline-treated hearts maintained only 66% of the ATP, with a loss of 34%, resulting in loss of reperfusion cardiac contractility. […] On the other hand, contractile function of control saline dogs was ceased completely after LAD occlusion and never recovered during reperfusion.

Yorkshire pigs = assay: Aortic cross-clamping for 30 minutes in Yorkshire pigs (paraplegia); type: in vivo, pig; details: 30 minutes aortic cross-clamping, 4 days survival
Excerpt: The relationship between hypoxia and AD could open the avenue for effective preservation and pharmacological treatments of this neurodegenerative disease by using new therapeutic drugs like the novel bioenergetic drug, CCrP. CCrP provides protection of heart muscle against ischemic injury in CAD, UA, AMI, HF and cardiac surgical patients and thus save ischemic muscles from progressing to necrosis and heart failure, and will be protective against ischemic injury in stroke and AD. […] Since paraplegia following surgery of the descending thoracic aorta is a serious complication in adult and pediatric surgery, we tested the neuroprotective effect of Cyclocreatine in Yorkshire pigs which underwent 30 minutes of aortic cross-clamping then left to survive for 4 days. […] As indicated in Example 17, similar to heart tissue (Nourin-1), Nourin protein was quickly released within 5 minutes by brain (Nourin-2) and spinal cord (Nourin-3) in response to ischemia. Because of the great similarities between heart and brain and that they are both require high demand of ATP, CCrP will be as effective in preventing ischemic injury and restoring neurologic function in stroke and AD, similar to HF.

[4] = Crossing of the blood-brain barrier

NC1=NCCN1CC(=O)O [Cyclocreatine]
myocardial tissue pH ([1]; 1 hour warm ischemia and ex vivo perfusion, baseline 7.11, control nadir 6.00±0.25): 7.04±0.1
time to stop beating and develop asystole ([1]; after exsanguination, control average 2 minutes): 9 min
intracellular edema (diffusion weighted MRI) ([1]; compared to control): Reduced intracellular edema
myocardial tissue lactic acidosis (spectroscopic MRI) ([1]; compared to control): Reduced myocardial tissue lactic acidosis
cell injury marker Malondialdehyde ([1]; compared to controls): Reduced level
myocardial ATP content ([1]; compared to controls): Three-fold increase
reduction of Caspase enzyme activities, of baseline ([1]; control dogs 3.86-fold increase over baseline): 25%
post-bypass cardiac output, of the baseline function ([2]; CCr 500 mg/kg IV, throughout 4 hours of reperfusion, control 60%): over 90%
resumption of contractility during reperfusion ([2]; all control dogs required defibrillation, listed as CCr): without arrhythmias; also recorded: without the need for defibrillation
preservation of pre-ischemic ATP level ([3]; CCr 60 minutes before LAD occlusion for 1 hour, saline 66%): over 85%
loss of ATP ([3]; CCr 60 minutes before LAD occlusion, saline 34%): 15%
neutrophil accumulation into the myocardium ([3]; at the end of 2 hours reperfusion): reduces neutrophil accumulation
loss of CrP ([3]; during ischemia): 3%
preservation of the CrP ([3]; during ischemia): 97%
circulating Nourin protein in plasma ([3]; during the 2 hour reperfusion): inhibiting the levels of circulating Nourin protein
contractile function restored ([3]; immediately at reperfusion and for an additional 2 hours): over 80%
myocardial cell injury (histology) [3]: significantly reduced myocardial cell injury
myocardial cell injury (histology) ([3]; listed as CCr): markedly less myocardial cell injury
ability to stand and walk (Yorkshire pigs): Majority of Cyclocreatine-treated animals were able to stand and walk
crossing of the blood-brain barrier [4]: crosses the blood-brain barrier; also recorded: crosses the blood brain barrier
